ChEMBL document CHEMBL2401629, “HS-1793, a recently developed resveratrol analogue protects rat heart against hypoxia/reoxygenation injury via attenuating mitochondrial damage” (2013)
Activity calls are given as the source filed them. The rule behind the calls is not given here.

How the values were obtained:
Heart = assay: Cardioprotective activity in Sprague-Dawley rat heart assessed as reduction of hypoxia/reoxygenation-induced infarct size at 10 uM treated 30 mins before reoxygenation by triphenyltetrazolium chloride staining (reference value: 42.10 +/- 7.36%); type: functional; design: scale not given: the % may be the effect or the level left
Rattus norvegicus = species: Rattus norvegicus; assay: Inhibition of calcium-induced cardiac mitochondria swelling in Sprague-Dawley rat at 1 uM after 10 mins; type: functional; conditions: Heart
[1] = Cardioprotective activity in Sprague-Dawley rat cardiomyocytes assessed as reduction of hypoxia/reoxygenation-induced mitochondrial calcium flux at 10 uM after 15 mins by Rhod 2AM staining relative to control; type: functional, cell-based; design: scale not given: the % may be the effect or the level left; conditions: Cardiac muscle cell
[2] = Reduction of ouabain-induced mitochondrial calcium flux in Sprague-Dawley rat cardiomyocytes at 10 uM after 15 mins by Rhod 2AM staining relative to control; type: functional, Cardiac muscle cell; design: scale not given: the % may be the effect or the level left
[3] = Cardioprotective activity in Sprague-Dawley rat cardiomyocytes assessed as prevention of hypoxia/reoxygenation-induced collapse of state 3 respiration in presence of 100 uM ADP; type: functional, cell-based; conditions: Cardiac muscle cell
[4] = Cardioprotective activity in Sprague-Dawley rat cardiomyocytes assessed as reduction of hypoxia/reoxygenation-induced mitochondrial superoxide level at 10 uM after 15 mins by MitoSOX red staining relative to control; type: functional, cell-based; design: scale not given: the % may be the effect or the level left; conditions: Cardiac muscle cell

Oc1ccc(-c2ccc3cc(O)ccc3c2)c(O)c1
Activity (Heart): 3.92% | inhibition (Rattus norvegicus): Active | Activity [1]: 168% | Activity [2]: 111.82% | Activity [3]: Active | Activity [4]: 98.1%
